Where two headings read alike, the source gives them in different places.
What was measured:
[1] = target: T1, K18PL tau (Homo sapiens, UniProt P10636, P618L); experiment: Heparin-induced K18PL tau fibrillization assay monitored by ThT fluorescence; format: biochemical; conditions: for Emax: read-out: K18PL (ThT) maximal percent inhibition achieved in the assay; for inhibition at 80 µM: highest tested concentration (80 μM), read-out: Tau ThT Assay % Inhib.
T1 construct: (K18PL; amino acids 244-369); made in house
Method: Tau fibril formation reactions were performed essentially as described (Crowe, A., Ballatore, C., Hyde, E., Trojanowski, J. Q., and Lee, V. M. Y. (2007) Biochemical and Biophysical Research Communications 358, 1-6). K18PL (2 μl of a 30 μM stock that also contained 0.24 μM Alexa Red-labeled K18PL) was dispensed into black 1536-well plates (Grenier) using a solenoid-based dispenser. Following transfer of 23 nL of test compound or DMSO vehicle by a pin tool from compound library plates, 2 μl/well of 40 μM heparin in reagent buffer was dispensed and the plate was centrifuged for 15 s at 1000 rpm in a table-top centrifuge. The fibrillization reaction proceeded for 6 hours at 37° C. in a humidified incubator (Kalypsys).
K18PL fibril formation was quantified with a ThT assay as previously described (Crowe, A., Ballatore, C., Hyde, E., Trojanowski, J. Q., and Lee, V. M. Y. (2007) Biochemical and Biophysical Research Communications 358, 1-6). Briefly, 1 μl/well of 62.5 μM ThT (Sigma) in 100 mM glycine, pH 8.5 (12.5 μM final concentration) was dispensed into 1536-well plates after completion of the fibrillization reaction and incubated at room temperature for 1 hour. Plates were read on an Envision fluorescence plate reader with an excitation of 450 nm and an emission setting of 510 nm.
Compound effects on tau assembly were determined for the ThT and FP assays using the formula 1−(Fcompound− FDMSO)/( Fcontrol− FDMSO), where Fcontrol denotes the median plate fluorescence values (ThT assay) or mP values (FP assay) of the non-fibrillizing K18 KD control wells, FDMSO denotes the median value of the DMSO control wells, and Fcompound denotes the compound well values. The resulting values were multiplied by 100 to obtain the percent inhibition of tau fibril formation.
(§1) The solubility of test compounds in the sodium acetate buffer used for subsequent fibrillization reactions was determined by turbidimetric measurements. Compounds were then evaluated in a heparin-induced tau assembly assay, in which the fibrillization of the truncated K18 tau fragment (comprised of four MT-binding repeats) bearing the P301L mutation (K18PL) found in FTDP-17, was monitored by thioflavine-T (ThT) binding and fluorescence (FIG. 3A). (Crowe, A.; et al., Identification of aminothienopyridazine inhibitors of tau assembly by quantitative high-throughput screening. Biochemistry 2009, 48, 7732-45.) The inhibitory activity of test compounds was then confirmed with an orthogonal sedimentation assay in which compound-treated fibrillizing mixtures were centrifuged and quantitation of K18PL tau in the soluble and insoluble fraction was performed by densitometric analyses of SDS-PAGE (FIG. 3B). […] Thus, the tau fibrillization assay was repeated in which both DMSO- and compound-treated mixtures were initially centrifuged for 30 min. prior to incubation (i.e., at time zero of the fibrillization reaction) to remove any pelletable material.

[2] = target: T1, K18PL tau; experiment: K18PL tau centrifugation (sedimentation) assay, SDS-PAGE densitometry; format: biochemical; conditions: for Emax: read-out: K18PL Sed. Assay, maximal percent inhibition of K18PL fibrillization; for Tau Cent. Assay % Soluble: Table 4, K18PL tau centrifugation assay
Method: (§2) The determination of compound-induced effects on the amount of tau that remains soluble upon centrifugation, and EM visualization of tau species following incubation with test compounds, were as previously described (Crowe, A., Ballatore, C., Hyde, E., Trojanowski, J. Q., and Lee, V. M. Y. (2007) Biochemical and Biophysical Research Communications 358, 1-6).
as §1

[3] = target: T2, full-length tau (tau40) (Homo sapiens, UniProt P10636); experiment: Tau40 fibrillization sedimentation assay; format: biochemical; conditions: SDS-PAGE of soluble and insoluble fractions after centrifugation; for Emax: read-out: Tau40 Sed. Assay, maximal percent inhibition of tau40 fibrillization
T2 construct: Full length tau (Tau40; amino acids 1-441); made in house
Method: as §2, with “1-6). […]” for “1-6).”

[4] = Brain and plasma drug levels 1 h after i.p. administration (LC-MS/MS); format: in vivo; conditions: mice; for B/P, ratio between brain/plasma drug level: 1 h after i.p. 5 mg/Kg
Method: Test compounds underwent preliminary evaluations of brain penetration, in which 5 mg/Kg of each compound was administered intraperitoneally (i.p.) to a group of three normal mice; drug levels in brain and plasma were determined at a single time-point (1 h) by LC-MS/MS using pre-validated calibration curves. […] However, both esters appeared to have relatively short half-lives in plasma, as indicated by the limited amount of parent drug detected after 1 h from administration of the compounds. […] CNDR-51362 was selected for full PK analysis in which brain and plasma drug levels were determined at six time points (i.e., 30 min, 1 h, 2 h, 4 h, 8 h, and 16 h). The results from this experiment, illustrated in FIG. 6A, confirmed that the total B/P exposure ratio over 16 h is 1.6. […] Finally, in order to investigate the potential for ATPZ congeners to be orally administered, we evaluated brain and plasma level of CNDR-51362 and CNDR-51349 after oral administration of 5 mg/Kg.
Brain tissue was homogenized in 10 mM ammonium acetate, pH 5.7 (1:2; w/v) using a handheld sonic homogenizer. Plasma was obtained from blood that was collected into a 1.5 mL tube containing 0.5M EDTA solution and subjected to centrifugation for 10 min. at 4500 g at 4° C. Aliquots (50 μL) of brain homogenate or plasma were mixed with 0.2 mL of acetonitrile, centrifuged at 15,000 g, and the resulting supernatants were used for subsequent LC-MS/MS analysis. The LC-MS/MS system was comprised of an Aquity HPLC and a TQ MS that was controlled using MassLynx software (Waters Corporation, Milford, Mass., USA). Compounds were detected using multiple reaction monitoring (MRM) of their specific collision-induced ion transitions. Samples (5 μL) were separated on an Aquity BEH C18 column (1.7 μm, 2.1×50 mm) at 35° C. Operation was in positive electrospray ionization mode, with mobile phase A of 0.1% (v/v) formic acid, and B of either acetonitrile or methanol with 0.1% (v/v) formic acid at a flow rate of 0.6 mL/min using a gradient from 5% to 95% B over two min., followed by wash and re-equilibration steps. The MS was operated with a desolvation temperature of 450° C. and a source temperature of 150° C. Desolvation and source nitrogen gas flows were 900 L/hr and 50 L/hr, respectively. Source and MS/MS voltages were optimized for each compound using the MassLynx auto tune utility. Standard curves were generated for each compound from brain homogenate and plasma samples that had compound added at 4, 40, 400 and 4000 ng/mL and extracted as above. Peak areas were plotted against concentration and a 1/x weighted linear regression curve was used to quantify the tissue-derived samples using the average peak area from triplicate injections.

[5] = Turbidimetric solubility in fibrillization buffer; format: physicochemical; conditions: 100 mM NaOAc pH 7.0 fibrillization buffer, 1% DMSO
Method: Compounds were serially diluted in DMSO to achieve a 2.5 fold dilution series from 20 mM down 8 points to […] on a 384-well master plate (Costar 3672). Aliquots (2 μL) were transferred to a clear 96-well assay plate (Fisher 12-565-501) containing 198 μL fibrillization buffer (100 mM NaOAc pH 7.0) for a 100-fold dilution (200 μM down to 0.3 μM). The plate was incubated with agitation for 2.5 h, and the absorbance at 550, 600, 650 and 700 nm was measured on a Spectramax M5 spectrophotometer. DMSO (1%) in fibrillization buffer served as a control that was subtracted from each data point. The absorbances were averaged and the concentration at which the average absorbance rose above 0.03 AU was an indication of insoluble compound, with solubility limits reported as the previous concentration in the dilution series.

[6] = Table 5, read-out: K18PL (ThT) IC50 value
[7] = SDS-PAGE of soluble and insoluble fractions after centrifugation
[8] = Table 4, logarithm of IC50, K18PL tau ThT fluorescence inhibition, read-out: Tau ThT Assay Log IC50 (converted)

T2 sequence (P10636 1-441 isoform P10636-8): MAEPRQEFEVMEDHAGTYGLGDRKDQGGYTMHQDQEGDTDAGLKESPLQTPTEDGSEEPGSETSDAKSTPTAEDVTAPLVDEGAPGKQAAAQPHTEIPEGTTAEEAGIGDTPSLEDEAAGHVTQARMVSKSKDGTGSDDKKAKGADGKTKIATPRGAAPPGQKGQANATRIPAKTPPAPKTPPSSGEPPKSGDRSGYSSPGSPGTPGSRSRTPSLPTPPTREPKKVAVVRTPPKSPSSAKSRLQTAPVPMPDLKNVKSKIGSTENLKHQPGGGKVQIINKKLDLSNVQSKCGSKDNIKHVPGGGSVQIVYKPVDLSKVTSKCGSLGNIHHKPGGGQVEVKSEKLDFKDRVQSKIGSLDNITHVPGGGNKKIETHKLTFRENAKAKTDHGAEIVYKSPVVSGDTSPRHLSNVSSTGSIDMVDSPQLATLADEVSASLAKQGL
T1 sequence (P10636 561-686 P618L): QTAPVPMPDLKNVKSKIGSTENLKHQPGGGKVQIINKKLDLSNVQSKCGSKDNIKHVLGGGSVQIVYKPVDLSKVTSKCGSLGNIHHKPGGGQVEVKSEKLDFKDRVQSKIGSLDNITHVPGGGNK

Row | Structure (SMILES) | IC50 [1, 6] | Emax ([1]; Table 5) | Emax [2, 7] | Tau40 Sed. Assay, maximal percent inhibition of tau40 fibrillization [3] | Emax [3] | Brain penetration ([4]; i.p. 5 mg/Kg, 1 h) | B/P, ratio between brain/plasma drug level [4] | melting point | inhibition at 80 µM ([1]; Table 4) | IC50 [1, 8] | Tau Cent. Assay % Soluble [2] | K18PL Sed. Assay, maximal percent inhibition of K18PL fibrillization [2, 7] | Water Solubility [5]
1 | CCOC(=O)c1ccccc1-n1nc(C(=O)OCC)c2csc(N)c2c1=O [CNDR-51419, Ethyl 5-amino-3-(2-(ethoxycarbonyl)phenyl)-4-oxo-3,4-dihydrothieno[3,4-d]pyridazine-1-carboxylate] | – | – | – | – | – | – | – | 176 to 178 °C | 65% | 1260 nM | 40% | – | –
2 | CCOC(=O)c1cccc(-n2nc(C(=O)OCC)c3csc(N)c3c2=O)c1 [CNDR-51420, Ethyl 5-amino-3-(3-(ethoxycarbonyl)phenyl)-4-oxo-3,4-dihydrothieno[3,4-d]pyridazine-1-carboxylate] | – | – | – | – | – | – | – | 159 to 160 °C | 74% | 2000 nM | 83% | – | –
3 | CCOC(=O)c1nn(-c2ccccc2Br)c(=O)c2c(N)scc12 [CNDR-51421, Ethyl 5-amino-3-(2-bromophenyl)-4-oxo-3,4-dihydrothieno[3,4-d]pyridazine-1-carboxylate] | – | – | – | – | – | – | – | 203 to 205 °C | 100% | 6310 nM | 66% | – | –
4 | CCOC(=O)c1nn(-c2cccc(Br)c2)c(=O)c2c(N)scc12 [CNDR-51422, Ethyl 5-amino-3-(3-bromophenyl)-4-oxo-3,4-dihydrothieno[3,4-d]pyridazine-1-carboxylate] | – | – | – | – | – | – | – | 163 to 165 °C | 87% | 1000 nM | 67% | – | –
5 | CCOC(=O)c1nn(-c2cccc(C)c2)c(=O)c2c(N)scc12 [CNDR-51423, Ethyl 5-amino-4-oxo-3-(m-tolyl)-3,4-dihydrothieno[3,4-d]pyridazine-1-carboxylate] | – | – | – | – | – | – | – | 190 to 191 °C | 80% | 1260 nM | 29% | – | –

The next lines start with the values.

Row | IC50 [1, 6] | Emax ([1]; Table 5) | Emax [2, 7] | Tau40 Sed. Assay, maximal percent inhibition of tau40 fibrillization [3] | Emax [3] | Brain penetration ([4]; i.p. 5 mg/Kg, 1 h) | B/P, ratio between brain/plasma drug level [4] | melting point | inhibition at 80 µM ([1]; Table 4) | IC50 [1, 8] | Tau Cent. Assay % Soluble [2] | K18PL Sed. Assay, maximal percent inhibition of K18PL fibrillization [2, 7] | Water Solubility [5] | Structure (SMILES)
6 | 1600 nM | 87% | 79% | 62% | 50 to 60% | lack of brain penetration | 0.023 | > 300 °C | – | – | – | – | – | Nc1scc2c(C(=O)O)nn(-c3ccc(Cl)cc3)c(=O)c12 [CNDR-51348, 5-Amino-3-(4-chlorophenyl)-4-oxo-3,4-dihydrothieno[3,4-d]pyridazine-1-carboxylic acid]
7 | – | – | – | – | – | – | – | 211 to 213 °C | 68% | 3160 nM | 70% | – | – | CCOC(=O)c1nn(-c2ccc(N(C)C)cc2)c(=O)c2c(N)scc12 [CNDR-51359, Ethyl 5-amino-3-(4-(dimethylamino)phenyl)-4-oxo-3,4-dihydrothieno[3,4-d]pyridazine-1-carboxylate]
8 | 5300 nM | 88% | – | 69% | 50 to 60% | – | 0.44 | – | – | – | – | 69% | 32 µM | CN(C)C(=O)c1nn(-c2ccc(Cl)cc2)c(=O)c2c(N)scc12 [CNDR-51361, 5-Amino-3-(4-chlorophenyl)-N,N-dimethyl-4-oxo-3,4-dihydrothieno[3,4-d]pyridazine-1-carboxamide]
9 | 5600 nM | 91% | 94% | 57% | 50 to 60% | – | 1.8 | – | – | – | – | – | 32 µM | CCNC(=O)c1nn(-c2ccc(Cl)cc2)c(=O)c2c(N)scc12 [CNDR-51365, 5-Amino-3-(4-chlorophenyl)-N-ethyl-4-oxo-3,4-dihydrothieno[3,4-d]pyridazine-1-carboxamide]
10 | 1500 nM | 81% | 44% | 61% | 50 to 60% | – | – | 118 to 120 °C | – | – | – | – | 32 µM | CC(C)OC(=O)c1nn(-c2ccc(Cl)cc2)c(=O)c2c(N)scc12 [CNDR-51371, Isopropyl 5-amino-3-(4-chlorophenyl)-4-oxo-3,4-dihydrothieno[3,4-d]pyridazine-1-carboxylate]
11 | – | – | – | – | – | – | – | 169 to 170 °C | 80% | 6310 nM | 51% | – | – | CCOC(=O)c1nn(-c2ccc(N=[N+]=[N-])cc2)c(=O)c2c(N)scc12 [CNDR-51412, Ethyl 5-amino-3-(4-azidophenyl)-4-oxo-3,4-dihydrothieno[3,4-d]pyridazine-1-carboxylate]

— patent publication US20130029983A1, “AMINOTHIENOPYRIDAZINE INHIBITORS OF TAU ASSEMBLY” (priority 2009, published 2013)
